According to US20080288176A1 (priority 2005, published 2008):

Key:
[1] = Stability in intestinal lumen (decay rate); type: in vitro ADME
Description: (§1) The physiologically based pharmacokinetic/pharmacodynamic model of the present invention contains a series of compartments that describe the time course of a nonsteroidal anti-inflammatory prodrug, its active metabolites and nitric oxide release in intestine, liver, kidneys, blood/plasma and heart after prodrug administration. The time course of the prodrug, its active metabolites and nitric oxide release can be simulated using a series of in vitro and in silico inputs. The stability of each component in the gastrointestinal lumen is estimated using data collected from artificial gastric and intestinal juice. Intestinal metabolism is estimated using intestinal microsomes and absorption rate is estimated using permeability data collected from a cell monolayer such as Caco-2. Hepatic elimination is estimated using liver microsomes and stability in plasma is calculated using degradation of each component in the media. Plasma protein binding can either be measured using a standardized in vitro method or it can be estimated using an in silico method. The distribution of each component in various parts of the body is estimated using an in silico method. The rate of nitric oxide release is estimated using an in vitro endothelial cell model. The time course of prodrug, its active metabolites and nitric oxide can be simulated in human and animal using this physiologically based pharmacokinetic/pharmacodynamic model provided that the corresponding in vitro and in silico data are used as inputs.
(§2) Representative in vitro tests or in silico estimates include: (a) pKa estimation or measurement; (b) Log P measurement or in silico estimation; (c) Solubility in various physiological fluids; (d) Permeability. Caco-2 and/or NOVOKIN's proprietary animal and human cell lines can be used to obtain this parameter; (e) Metabolic rate in the intestine and liver. Human or animal intestinal microsomes, S9 fraction, and cytosol can be used for this purpose. Human or animal hepatocytes, liver microsomes, S9 fraction, and cytosol can also be used; (f) Hydrolysis in human or animal plasma; (g) Serum or plasma protein binding. It can be measured in vitro or estimated in silico; (h) The rate of NO release; (i) Existing pharmacokinetic and pharmacodynamic data of NSAID or a biocompatible agent; (j) Existing NO release rate of known diazeniumdiolate if applicable; (k) Stability in gastric and intestinal environment; and (l) In silico volume of distribution estimation.

male Wistar rats = experiment: Urine alanine aminopeptidase to creatinine ratio (proximal tubular kidney damage); type: in vivo, rat; settings: for AAP/Cr (urine alanine aminopeptidase to creatinine), Mean: oral gavage, urine collected for 6 hours
Description: (§3) Myocardial infarction and ischemic events in high risk patients led one of the most popular COX-2 inhibitors to its demise (Bresalier et al., 2005). Non-selective NSAIDS may also cause similar problems due to their ability to inhibit COX-2. […] Adenosine diphosphate (ADP) generation is an indicator of myocardial infarction which has no connection with the arachidonic acid cascade (Borna et al., 2005). […] Long term NSAID use has been linked to kidney damage and hypertension (Zafirovska et al., 1993). […] This was associated with an increase in the urine the ratio of alanine-amino-peptidase (AAP) and creatinine.
(§4) Table 1 is a summary of the protocol for a study which was conducted in male Wistar rats weighing 275-300 grams. The animals were allowed to acclimatize for at least five days prior to the commencement of the study. The study protocol was approved by the local animal ethics committee.
All test animals, housed in metabolic cages, had urine collected over wet ice for 6 hours after dosing. Aliquots of the urine from each animal were collected to determine creatinine concentration. The remainder of the urine was centrifuged at 1000 g for 10 minutes. The supernatant was collected and mixed with analytical grade ethylene glycol at a rate of 0.4 mL ethylene glycol per 1 mL urine supernatant. The ethylene glycol/urine mixture was stored at −80° C. until analysis.

[2] = Hydrolysis in human intestinal microsomes; type: in vitro ADME; settings: for intestinal microsomal activity: model input
Description: as §1
The selection of in vitro tests is designed to provide parameters for the above mentioned model. The use of an inappropriate test would result in wrong predictions. For example, Knaus et al. (2005) used guinea pig serum and porcine esterases to hydrolyze their O^2-substituted diazeniumdiolate derivatives of ASPIRIN, as disclosed in U.S. Ser. No. 60/681,842. These tests provided very little information in terms of in vivo human NO-NSAID metabolism rate and the extent to which metabolic conversion to NO donor and NSAID occurred. […] The half-life values were less than one minute. Based on these observations, it has become apparent that prior to entering the systemic circulation, it is likely that the NO-NSAID would have been hydrolyzed in the enterocytes and little or no NO-NSAID would have been detected in the blood stream. Furthermore, the release of NO will commence immediately once the NO donor is detached from the NSAID.
as §2
Whenever in vitro estimate is attainable, the in vitro results will be used, for example, plasma protein binding. Methods reported by Bowalgaha & Miners (2001), Martignoni et al. (2006), Tong et al. (2001) and Thulesen et al. (1999) were used for in vitro and in vivo scale-up for clearance in the intestine, absorption rate constant and hepatic clearance. The simulation begins with no material in all compartments except for the initial bolus in one compartment (typically the stomach compartment). The simulation then estimates the changing distribution of the material with time.

[3] = tested on: cardiac tissue prostacyclin (PGI2) to thromboxane A2 (TXB2) ratio; experiment: Cardiac tissue prostacyclin to thromboxane ratio; type: in vivo, rat; settings: male Wistar rats; for Cardiac Tissue PGI2/TXB2, Mean: oral gavage, heart removed 6 hours after dosing
Description: as §3, §4
All rats were euthanized by removal of the heart 6 hours after initial dosing, following final blood collections. Immediately after terminal blood collections were complete, the thorax was opened and the heart removed. The heart was cut in half longitudinally. Half of the heart was placed in formalin for histological examination. The other half was quickly rinsed in saline and then freeze-clamped (crushed between the jaws of a pair of modified tongs, cooled by liquid nitrogen). An entire kidney was freeze-clamped. The other kidney was left in situ for examination by the pathologist. Freeze-clamped tissues were wrapped in labeled aluminum foil and stored in liquid nitrogen until they could be transferred to a −80° C. freezer. Freeze-clamped tissues were shipped on dry ice to NOVOKIN for analysis.

Hydrolysis in rat plasma = type: in vitro ADME; settings: Rat
Description: as §1, §2

[4] = Hydrolysis in human plasma; type: in vitro ADME
Description: as §1, with “The time course of prodrug, its active metabolites and nitric oxide can be simulated in human and animal using this physiologically based pharmacokinetic/pharmacodynamic model provided that the corresponding in vitro and in silico data are used as inputs.” left out

[5] = Plasma NAPROXEN AUC0-6h after oral dosing; type: in vivo, rat; settings: male Wistar rats
Method: as §4

[6] = in vitro; Knaus et al., 2005; cited from earlier work

plasma decay rate constant [4] [min⁻¹] | AUC0-6h of NAPROXEN compared with parent drug (in words) [5] | SMILES | intestinal lumen decay rate constant ([1]; Human) [min⁻¹] | intestinal lumen decay rate constant ([1]; Rat) [min⁻¹] | Urine AAP/creatinine ratio change (in words) (male Wistar rats) | AAP/Cr (urine alanine aminopeptidase to creatinine), Mean (male Wistar rats) | intestinal microsomal activity [2] [mL/min/organ] | PGI2/TXA2 ratio comparison (in words) ([3]; cardiac tissue) | Cardiac Tissue PGI2/TXB2, Mean [3] | plasma decay rate constant (Hydrolysis in rat plasma) [min⁻¹] | intestinal molar percent conversion to Naproxen [2] [%] | NO generating capacity relative to AZD 3582 [6] [times]
1.0 | much lower than for NAPROXEN parent drug | COc1ccc2cc([C@H](C)C(=O)OCCCCO[N+](=O)[O-])ccc2c1 [AZD 3582] | 0 | 0 | did cause an increase | 403.400 | 554 | lower ratios than vehicle | 3.432 | 1.0 | – | –
– | – | COc1ccc2cc(C(C)C(=O)OCON=[N+]([O-])N3CCCC3)ccc2c1 (stereo not drawn) [PYRO-NO-NAP, pyrrolidino-diazeniumdiolate-naproxen] | 0.025 | 0.025 | – | 195.569 | 188 | – | 4.937 | 1.4 | 87 | 13
